Measurements from US20050181072A1, “Use of essential oils for combating gi tract infection by helicobacter-like organisms” (priority 2000, published 2005).
≈ marks a conversion by molar mass, not a printed value. Where two headings read alike, the source gives them in different places.

Tested on: H. pylori
Assay: Liquid medium assay, MBC determination (CFU count after subculture)
Assay type: cell-based
Conditions: Helicobacter pylori
Description: The parameters used to define the inhibitory capacity of a given substance are: 1) the minimal inhibitory concentration (MIC) which is the lowest concentration at which bacterial growth is prevented, and 2) the minimal […] concentration (MBC) which is the lowest concentration at which bacteria are killed (no growth in subculture). In the light of this: MIC≦MBC. ?
b) Liquid medium assay (used for MBC determination)
MBC determination in H. pylori was carried out by placing bacteria and different dilutions of EO at pH 7.4 together for 1 h or 24 h, plating (subculture in solid medium) for 3-5 days, and counting colony forming units (CFU). The results were then plotted as H. pylori (log10CFU/ml) vs concentration of EO (g/l). It is clear from the plots (shown in FIGS. 1 and 2) that EOs already display a marked effect on H. pylori viability after 1 h incubation and that the selected EOs are remarkably potent inhibitors of H. pylori in vitro.

[1] = pure compounds, Table 2, pH 7.4, read-out: Liquid medium MBC
[2] = pH 7.4, read-out: Liquid medium MBC

SMILES | MBC [1] | MBC [2]
CC1=CCC2CC1C2(C)C (stereo not drawn) [Alpha-pinene] | 100 µg/mL (≈ 734 µM) | 
C=C1CCC2CC1C2(C)C (stereo not drawn) [Beta-pinene] | 100 µg/mL (≈ 734 µM) | 
Cc1ccc(C(C)C)cc1O [Carvacrol] |  | 40 µg/mL (≈ 266 µM)
CC(C)=CCCC(C)=CC=O [Citral] | 40 µg/mL (≈ 263 µM) | 
CC(C)=CCCC(C)CC=O (centres unmarked) [Citronellal] | 100 µg/mL (≈ 648 µM) | 
C=CCc1ccc(OC)cc1 [Estragole] |  | 100 µg/mL (≈ 675 µM)
C=CCc1ccc(O)c(OC)c1 [Eugenol] | 100 µg/mL (≈ 609 µM) | 
CC12CCC(CC1)C(C)(C)O2 [Eukalyptol] | > 100 µg/mL | 
CC(C)=CCCC(C)=CCCC(C)=CCO [Farnesol] | 40 µg/mL (≈ 180 µM) | 
CC(C)=CCC/C(C)=C/CO [Geraniol] | 100 µg/mL (≈ 648 µM) | 
CC(=O)OC/C=C(\C)CCC=C(C)C [Geranyl acetate] | > 100 µg/mL | 
CC=Cc1ccc(O)c(OC)c1 [Isoeugenol] | 40 µg/mL (≈ 244 µM) | 
C=CC(C)(O)CCC=C(C)C (centres unmarked) [Linalool] | 100 µg/mL (≈ 648 µM) | 
CC1CCC(C(C)C)C(O)C1 (centres unmarked) [Menthol] | > 100 µg/mL | 
CC(C)=CCC/C(C)=C\CO [Nerol] | 40 µg/mL (≈ 259 µM) | 
Cc1ccc(C(C)C)c(O)c1 [Thymol] | 100 µg/mL (≈ 666 µM) | 
CCC/C=C/C=O [Trans-2-hexenal] | 40 µg/mL (≈ 408 µM) | 
